Measurements reported in patent US20050244486A1, “Topical methadone compositions and methods for using the same” (priority 2004, published 2005).
Values after ≈ are worked out from the molar mass of the structure shown. Values joined by “and” are separate entries in the source; they are usually repeats but may differ in a detail not shown here. Identical values can stand only once.

Tests used:
[1] = Solubility of methadone in different solvents; type: physicochemical
Protocol: In this experiment, the solubility of methadone in a number of different solvents was evaluated. The solvents evaluated were mineral oil, N-methyl-2-pyrrolidone, diisopropyl adipate, DEET, PEG, Di (propylene glycol), dehydrated alcohol and water. […] The stability of the solutions was also evaluated.

[2] = Study 1: concentrations of methadone in rat plasma, topical administration versus intravenous injection; type: in vivo
Protocol: The test article was administered intravenously (IV) through the tail vein to animals in Group A. The injection was performed slowly. A gauze pad (1×1 cm) Saturated with 0.2 mL of the appropriate test article was applied to the clipped site on the back of the animals in Groups 2 and 3. The gauze pad was secured by occlusive tape. The animal was wrapped in gauze, which was held in place with Zonas porous tape.
Blood Collection: Blood (0.5 mL) was collected into sodium heparin tubes at the appropriate time points. The samples were centrifuged at approximately 2800 rpm at 2-8 degrees Celsius for approximately 15 minutes. Plasma was collected.

`CCC(=O)C(CC(C)N(C)C)(c1ccccc1)c1ccccc1` (centres unmarked) [Methadone, 6-dimethylamino-4,4-diphenyl-3-hepatone] showed a solubility at 3 h ([1]; oil or lipid, Mineral oil, 3 hour) of 39.9 mg/mL (≈ 129 mM), a solubility at 6 h ([1]; oil or lipid, Mineral oil, 6 hour) of 37.2 mg/mL (≈ 120 mM) and a solubility at 24 h ([1]; oil or lipid, Mineral oil, 24 hour) of 40.4 mg/mL (≈ 131 mM). It also gave a solubility at 48 h ([1]; oil or lipid, Mineral oil, 48 hour) of 40.4 mg/mL (≈ 131 mM), a solubility at 3 h ([1]; organic solvent or mixture, thermodynamic from solid, diisopropyl adipate, 3 hour) of 343 mg/mL (≈ 1110 mM) and a solubility at 6 h ([1]; organic solvent or mixture, thermodynamic from solid, diisopropyl adipate, 6 hour) of 345 mg/mL (≈ 1110 mM). The solubility at 48 h ([1]; organic solvent or mixture, thermodynamic from solid, diisopropyl adipate, 48 hour) was 324 mg/mL (≈ 1050 mM), the solubility at 3 h ([1]; organic solvent or mixture, DEET (97%), 3 hour) was 124 mg/mL (≈ 401 mM) and the solubility at 6 h ([1]; organic solvent or mixture, DEET (97%), 6 hour) was 125 mg/mL (≈ 404 mM). For the same compound, the solubility at 24 h ([1]; organic solvent or mixture, DEET (97%), 24 hour) was 137 mg/mL (≈ 443 mM), the solubility at 48 h ([1]; organic solvent or mixture, DEET (97%), 48 hour) was 132 mg/mL (≈ 427 mM) and the solubility at 3 h ([1]; organic solvent or mixture, Dehydrated Alcohol, 3 hour) was 114 mg/mL (≈ 368 mM). It also gave a solubility at 6 h ([1]; organic solvent or mixture, Dehydrated Alcohol, 6 hour) of 113 mg/mL (≈ 365 mM), a solubility at 24 h ([1]; organic solvent or mixture, Dehydrated Alcohol, 24 hour) of 115 mg/mL (≈ 372 mM) and a solubility at 48 h ([1]; organic solvent or mixture, Dehydrated Alcohol, 48 hour) of 118 mg/mL (≈ 381 mM). It also gave a solubility at 3 h ([1]; organic solvent or mixture, Di(propylene glycol), 3 hour) of 56.2 mg/mL (≈ 182 mM), a solubility at 6 h ([1]; organic solvent or mixture, Di(propylene glycol), 6 hour) of 56.5 mg/mL (≈ 183 mM) and a solubility at 24 h ([1]; organic solvent or mixture, Di(propylene glycol), 24 hour) of 54.9 mg/mL (≈ 177 mM). It also gave a solubility at 48 h ([1]; organic solvent or mixture, Di(propylene glycol), 48 hour) of 58.7 mg/mL (≈ 190 mM), a solubility at 3 h ([1]; organic solvent or mixture, N-methyl-2-pyrrolidone, 3 hour) of 262 mg/mL (≈ 847 mM) and a solubility at 6 h ([1]; organic solvent or mixture, N-methyl-2-pyrrolidone, 6 hour) of 270 mg/mL (≈ 873 mM). It also gave a solubility at 24 h ([1]; organic solvent or mixture, N-methyl-2-pyrrolidone, 24 hour) of 347 mg/mL (≈ 1120 mM), a solubility at 48 h ([1]; organic solvent or mixture, N-methyl-2-pyrrolidone, 48 hour) of 342 mg/mL (≈ 1110 mM) and a solubility at 3 h ([1]; organic solvent or mixture, PEG - 400, 3 hour) of 39.7 mg/mL (≈ 128 mM). It also gave a solubility at 6 h ([1]; organic solvent or mixture, PEG - 400, 6 hour) of 39.9 mg/mL (≈ 129 mM), a solubility at 24 h ([1]; organic solvent or mixture, PEG - 400, 24 hour) of 38.8 mg/mL (≈ 125 mM) and a solubility at 48 h ([1]; organic solvent or mixture, PEG - 400, 48 hour) of 36.8 mg/mL (≈ 119 mM). The solubility at 24 h ([1]; organic solvent or mixture, diisopropyl adipate, 24 hour) was 360 mg/mL (≈ 1160 mM), the solubility at 3 h ([1]; thermodynamic from solid, water, 3 hour) was 0.217 mg/mL (≈ 0.701 mM) and the solubility at 6 h ([1]; thermodynamic from solid, water, 6 hour) was 0.228 mg/mL (≈ 0.737 mM). For the same compound, the solubility at 24 h ([1]; thermodynamic from solid, water, 24 hour) was 0.224 mg/mL (≈ 0.724 mM), the solubility at 48 h ([1]; thermodynamic from solid, water, 48 hour) was 0.225 mg/mL (≈ 0.727 mM) and the “Irritation of rat skin by topical application” value ([2]; Study 1, topical methadone solutions on rat skin over the application time) was “non-irritating”. The “Concentrations of Methadone in Rat Plasma Samples” value (“Concentrations of Methadone” for short) ([2]; Study 1 Group A: I.V. tail vein, 0.25 mL Test Article 1 (0.5 mg/mL Methadone-Saline Solution), 2 min, individual rats A1-A3) was 67.8 ng/mL and 69.5 ng/mL, the “Concentrations of Methadone” value ([2]; Study 1 Group A: I.V. tail vein, 0.25 mL Test Article 1 (0.5 mg/mL Methadone-Saline Solution), 5 min, individual rats A1-A3) was 68.9 ng/mL and 56.0 ng/mL and the “Concentrations of Methadone” value ([2]; Study 1 Group A: I.V. tail vein, 0.25 mL Test Article 1 (0.5 mg/mL Methadone-Saline Solution), 10 min, individual rats A1-A3) was 57.6 ng/mL and 42.3 ng/mL. For the same compound, the “Concentrations of Methadone” value ([2]; Study 1 Group A: I.V. tail vein, 0.25 mL Test Article 1 (0.5 mg/mL Methadone-Saline Solution), 30 min, individual rats A1-A3) was 30.9 ng/mL and 35.8 ng/mL, the “Concentrations of Methadone” value ([2]; Study 1 Group A: I.V. tail vein, 0.25 mL Test Article 1 (0.5 mg/mL Methadone-Saline Solution), 60 min, individual rats A1-A3) was 24.5 ng/mL and 22.7 ng/mL and the “Concentrations of Methadone” value ([2]; Study 1 Group B: topical dorsal flank, 1 × 1 cm gauze pad with 0.2 mL Test Article 2 (Methadone-Diisopropyl Adipate Solution 23.9%), 10 min, individual rats B1-B3) was “BQL (below quantification limit (1.00 ng/mL))”. For the same compound, the “Concentrations of Methadone” value ([2]; Study 1 Group B: topical dorsal flank, 1 × 1 cm gauze pad with 0.2 mL Test Article 2 (Methadone-Diisopropyl Adipate Solution 23.9%), 20 min, individual rats B1-B3) was 3.25 ng/mL and 3.18 ng/mL, the “Concentrations of Methadone” value ([2]; Study 1 Group B: topical dorsal flank, 1 × 1 cm gauze pad with 0.2 mL Test Article 2 (Methadone-Diisopropyl Adipate Solution 23.9%), 45 min, individual rats B1-B3) was 10.4 ng/mL and 7.24 ng/mL and the “Concentrations of Methadone” value ([2]; Study 1 Group B: topical dorsal flank, 1 × 1 cm gauze pad with 0.2 mL Test Article 2 (Methadone-Diisopropyl Adipate Solution 23.9%), 60 min, individual rats B1-B3) was 15.1 ng/mL and 12.4 ng/mL. For the same compound, the “Concentrations of Methadone” value ([2]; Study 1 Group B: topical dorsal flank, 1 × 1 cm gauze pad with 0.2 mL Test Article 2 (Methadone-Diisopropyl Adipate Solution 23.9%), 120 min, individual rats B1-B3) was 44.1 ng/mL and 57.8 ng/mL and 26.2 ng/mL, the “Concentrations of Methadone” value ([2]; Study 1 Group C: topical dorsal flank, 1 × 1 cm gauze pad with 0.2 mL Test Article 3 (Methadone-DEET Solution 10%), 10 min, individual rats C1-C3) was “BQL (below quantification limit (1.00 ng/mL))” and the “Concentrations of Methadone” value ([2]; Study 1 Group C: topical dorsal flank, 1 × 1 cm gauze pad with 0.2 mL Test Article 3 (Methadone-DEET Solution 10%), 20 min, individual rats C1-C3) was “BQL (below quantification limit (1.00 ng/mL))”. For the same compound, the “Concentrations of Methadone” value ([2]; Study 1 Group C: topical dorsal flank, 1 × 1 cm gauze pad with 0.2 mL Test Article 3 (Methadone-DEET Solution 10%), 45 min, individual rats C1-C3) was 2.66 ng/mL and 2.84 ng/mL, the “Concentrations of Methadone” value ([2]; Study 1 Group C: topical dorsal flank, 1 × 1 cm gauze pad with 0.2 mL Test Article 3 (Methadone-DEET Solution 10%), 60 min, individual rats C1-C3) was 3.27 ng/mL and 4.16 ng/mL and the “Concentrations of Methadone” value ([2]; Study 1 Group C: topical dorsal flank, 1 × 1 cm gauze pad with 0.2 mL Test Article 3 (Methadone-DEET Solution 10%), 120 min, individual rats C1-C3) was 6.22 ng/mL and 5.97 ng/mL. For the same compound, the concentration at 45 min ([2]; rat, in vivo, 0.2 mL of 10% methadone solution, Study 1 Group C: topical dorsal flank, 1 × 1 cm gauze pad with 0.2 mL Test Article 3 (Methadone-DEET Solution 10%), 45 min, individual rats C1-C3, read-out: Concentrations of Methadone in Rat Plasma Samples) was 3.83 ng/mL and the concentration at 60 min ([2]; rat, in vivo, 0.2 mL of 10% methadone solution, Study 1 Group C: topical dorsal flank, 1 × 1 cm gauze pad with 0.2 mL Test Article 3 (Methadone-DEET Solution 10%), 60 min, individual rats C1-C3, read-out: Concentrations of Methadone in Rat Plasma Samples) was 3.88 ng/mL.
